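Five compound concentrations were applied to cells in 96-well plates for 48 hours; endpoints were derived by simple linear interpolation of the resulting dose-response curve. Here, GI50 denotes the concentration required for 50% inhibition of growth. TGI: concentration producing complete growth inhibition.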
Tests used:
Experiment in all cases: NCI anticancer screen, dose series, 48 h
786-0 renal = system: 786-0 renal
A498 renal = system: A498 renal
A549 NSCLC = system: A549 NSCLC
ACHN renal = system: ACHN renal
BT-549 breast = system: BT-549 breast
CAKI-1 renal = system: CAKI-1 renal
CCRF-CEM leukemia = system: CCRF-CEM leukemia
COLO 205 colon = system: COLO 205 colon
DU-145 prostate = system: DU-145 prostate
EKVX NSCLC = system: EKVX NSCLC
HCC-2998 colon = system: HCC-2998 colon
HCT-116 colon = system: HCT-116 colon
HCT-15 colon = system: HCT-15 colon
HL-60(TB) leukemia = system: HL-60(TB) leukemia
HOP-62 NSCLC = system: HOP-62 NSCLC
HOP-92 NSCLC = system: HOP-92 NSCLC
HS 578T breast = system: HS 578T breast
HT29 colon = system: HT29 colon
IGROV1 ovarian = system: IGROV1 ovarian
K-562 leukemia = system: K-562 leukemia
KM12 colon = system: KM12 colon
LOX IMVI melanoma = system: LOX IMVI melanoma
M14 melanoma = system: M14 melanoma
MALME-3M melanoma = system: MALME-3M melanoma
MCF7 breast = system: MCF7 breast
MDA-MB-231 breast = system: MDA-MB-231 breast
MDA-MB-435 = system: MDA-MB-435
MOLT-4 leukemia = system: MOLT-4 leukemia
NCI-H226 lung = system: NCI-H226 lung
NCI-H23 lung = system: NCI-H23 lung
NCI-H460 lung = system: NCI-H460 lung
NCI-H522 lung = system: NCI-H522 lung
NCI/ADR-RES ovarian = system: NCI/ADR-RES ovarian
OVCAR-3 ovarian = system: OVCAR-3 ovarian
OVCAR-4 ovarian = system: OVCAR-4 ovarian
OVCAR-5 ovarian = system: OVCAR-5 ovarian
OVCAR-8 ovarian = system: OVCAR-8 ovarian
PC-3 prostate = system: PC-3 prostate
RPMI-8226 leukemia = system: RPMI-8226 leukemia
RXF 393 renal = system: RXF 393 renal
SF-268 CNS = system: SF-268 CNS
SF-295 CNS = system: SF-295 CNS
SF-539 CNS = system: SF-539 CNS
SK-MEL-2 melanoma = system: SK-MEL-2 melanoma
SK-MEL-28 melanoma = system: SK-MEL-28 melanoma
SK-MEL-5 melanoma = system: SK-MEL-5 melanoma
SK-OV-3 ovarian = system: SK-OV-3 ovarian
SN12C renal = system: SN12C renal
SNB-19 CNS = system: SNB-19 CNS
SNB-75 CNS = system: SNB-75 CNS
SR leukemia = system: SR leukemia
SW-620 colon = system: SW-620 colon
T-47D breast = system: T-47D breast
TK-10 renal = system: TK-10 renal
U251 CNS = system: U251 CNS
UACC-257 melanoma = system: UACC-257 melanoma
UACC-62 melanoma = system: UACC-62 melanoma
UO-31 renal = system: UO-31 renal
MDA-N = system: MDA-N

COC1=CC(=O)c2nc(-c3ccncc3)[nH]c2C1=O
GI50 (786-0 renal): > 100 µM
TGI (786-0 renal): > 100 µM
GI50 (A498 renal): > 100 µM
TGI (A498 renal): > 100 µM
GI50 (A549 NSCLC): > 100 µM
TGI (A549 NSCLC): > 100 µM
GI50 (ACHN renal): > 100 µM
TGI (ACHN renal): > 100 µM
GI50 (BT-549 breast): > 100 µM
TGI (BT-549 breast): > 100 µM
GI50 (CAKI-1 renal): 86.6 µM
TGI (CAKI-1 renal): > 100 µM
GI50 (CCRF-CEM leukemia): > 100 µM
TGI (CCRF-CEM leukemia): > 100 µM
GI50 (COLO 205 colon): > 100 µM
TGI (COLO 205 colon): > 100 µM
GI50 (DU-145 prostate): > 100 µM
TGI (DU-145 prostate): > 100 µM
GI50 (EKVX NSCLC): > 100 µM
TGI (EKVX NSCLC): > 100 µM
GI50 (HCC-2998 colon): > 100 µM
TGI (HCC-2998 colon): > 100 µM
GI50 (HCT-116 colon): > 100 µM
TGI (HCT-116 colon): > 100 µM
GI50 (HCT-15 colon): > 100 µM
TGI (HCT-15 colon): > 100 µM
GI50 (HL-60(TB) leukemia): > 100 µM
TGI (HL-60(TB) leukemia): > 100 µM
GI50 (HOP-62 NSCLC): > 100 µM
TGI (HOP-62 NSCLC): > 100 µM
GI50 (HOP-92 NSCLC): 31.4 µM
TGI (HOP-92 NSCLC): > 100 µM
GI50 (HS 578T breast): 60 µM
TGI (HS 578T breast): > 100 µM
GI50 (HT29 colon): > 100 µM
TGI (HT29 colon): > 100 µM
GI50 (IGROV1 ovarian): > 100 µM
TGI (IGROV1 ovarian): > 100 µM
GI50 (K-562 leukemia): > 100 µM
TGI (K-562 leukemia): > 100 µM
GI50 (KM12 colon): > 100 µM
TGI (KM12 colon): > 100 µM
GI50 (LOX IMVI melanoma): > 100 µM
TGI (LOX IMVI melanoma): > 100 µM
GI50 (M14 melanoma): > 100 µM
TGI (M14 melanoma): > 100 µM
GI50 (MALME-3M melanoma): > 100 µM
TGI (MALME-3M melanoma): > 100 µM
GI50 (MCF7 breast): > 100 µM
TGI (MCF7 breast): > 100 µM
GI50 (MDA-MB-231 breast): > 100 µM
TGI (MDA-MB-231 breast): > 100 µM
GI50 (MDA-MB-435): > 100 µM
TGI (MDA-MB-435): > 100 µM
GI50 (MOLT-4 leukemia): > 100 µM
TGI (MOLT-4 leukemia): > 100 µM
GI50 (NCI-H226 lung): > 100 µM
TGI (NCI-H226 lung): > 100 µM
GI50 (NCI-H23 lung): > 100 µM
TGI (NCI-H23 lung): > 100 µM
GI50 (NCI-H460 lung): > 100 µM
TGI (NCI-H460 lung): > 100 µM
GI50 (NCI-H522 lung): > 100 µM
TGI (NCI-H522 lung): > 100 µM
GI50 (NCI/ADR-RES ovarian): > 100 µM
TGI (NCI/ADR-RES ovarian): > 100 µM
GI50 (OVCAR-3 ovarian): > 100 µM
TGI (OVCAR-3 ovarian): > 100 µM
GI50 (OVCAR-4 ovarian): 45.3 µM
TGI (OVCAR-4 ovarian): > 100 µM
GI50 (OVCAR-5 ovarian): > 100 µM
TGI (OVCAR-5 ovarian): > 100 µM
GI50 (OVCAR-8 ovarian): > 100 µM
TGI (OVCAR-8 ovarian): > 100 µM
GI50 (PC-3 prostate): > 100 µM
TGI (PC-3 prostate): > 100 µM
GI50 (RPMI-8226 leukemia): > 100 µM
TGI (RPMI-8226 leukemia): > 100 µM
GI50 (RXF 393 renal): > 100 µM
TGI (RXF 393 renal): > 100 µM
GI50 (SF-268 CNS): > 100 µM
TGI (SF-268 CNS): > 100 µM
GI50 (SF-295 CNS): > 100 µM
TGI (SF-295 CNS): > 100 µM
GI50 (SF-539 CNS): > 100 µM
TGI (SF-539 CNS): > 100 µM
GI50 (SK-MEL-2 melanoma): > 100 µM
TGI (SK-MEL-2 melanoma): > 100 µM
GI50 (SK-MEL-28 melanoma): > 100 µM
TGI (SK-MEL-28 melanoma): > 100 µM
GI50 (SK-MEL-5 melanoma): > 100 µM
TGI (SK-MEL-5 melanoma): > 100 µM
GI50 (SK-OV-3 ovarian): > 100 µM
TGI (SK-OV-3 ovarian): > 100 µM
GI50 (SN12C renal): > 100 µM
TGI (SN12C renal): > 100 µM
GI50 (SNB-19 CNS): > 100 µM
TGI (SNB-19 CNS): > 100 µM
GI50 (SNB-75 CNS): 88.3 µM
TGI (SNB-75 CNS): > 100 µM
GI50 (SR leukemia): > 100 µM
TGI (SR leukemia): > 100 µM
GI50 (SW-620 colon): > 100 µM
TGI (SW-620 colon): > 100 µM
GI50 (T-47D breast): > 100 µM
TGI (T-47D breast): > 100 µM
GI50 (TK-10 renal): > 100 µM
TGI (TK-10 renal): > 100 µM
GI50 (U251 CNS): > 100 µM
TGI (U251 CNS): > 100 µM
GI50 (UACC-257 melanoma): > 100 µM
TGI (UACC-257 melanoma): > 100 µM
GI50 (UACC-62 melanoma): > 100 µM
TGI (UACC-62 melanoma): > 100 µM
GI50 (UO-31 renal): 86.7 µM
TGI (UO-31 renal): > 100 µM

O=C(O)c1cccc2c1/C(=N/Nc1ccccc1)CC2
TGI (786-0 renal): > 100 µM
TGI (A498 renal): > 100 µM
TGI (ACHN renal): > 100 µM
TGI (CAKI-1 renal): > 100 µM
TGI (CCRF-CEM leukemia): > 100 µM
TGI (DU-145 prostate): > 100 µM
TGI (EKVX NSCLC): > 100 µM
TGI (HCC-2998 colon): > 100 µM
TGI (HCT-116 colon): > 100 µM
TGI (HCT-15 colon): > 100 µM
TGI (HOP-62 NSCLC): > 100 µM
TGI (HOP-92 NSCLC): > 100 µM
TGI (HS 578T breast): > 100 µM
TGI (HT29 colon): > 100 µM
TGI (IGROV1 ovarian): > 100 µM
TGI (K-562 leukemia): > 100 µM
TGI (KM12 colon): > 100 µM
TGI (LOX IMVI melanoma): > 100 µM
TGI (M14 melanoma): > 100 µM
TGI (MCF7 breast): > 100 µM
TGI (MDA-MB-231 breast): > 100 µM
TGI (MDA-MB-435): > 100 µM
TGI (MDA-N): > 100 µM
TGI (MOLT-4 leukemia): > 100 µM
TGI (NCI-H226 lung): 98.9 µM
TGI (NCI-H23 lung): > 100 µM
TGI (NCI-H460 lung): > 100 µM
TGI (NCI-H522 lung): > 100 µM
TGI (NCI/ADR-RES ovarian): > 100 µM
TGI (OVCAR-3 ovarian): > 100 µM
TGI (OVCAR-4 ovarian): > 100 µM
TGI (OVCAR-5 ovarian): > 100 µM
TGI (OVCAR-8 ovarian): > 100 µM
TGI (PC-3 prostate): > 100 µM
TGI (RPMI-8226 leukemia): > 100 µM
TGI (RXF 393 renal): > 100 µM
TGI (SF-268 CNS): > 100 µM
TGI (SF-295 CNS): > 100 µM
TGI (SF-539 CNS): > 100 µM
TGI (SK-MEL-2 melanoma): > 100 µM
TGI (SK-MEL-28 melanoma): > 100 µM
TGI (SK-MEL-5 melanoma): > 100 µM
TGI (SK-OV-3 ovarian): > 100 µM
TGI (SR leukemia): > 100 µM
TGI (SW-620 colon): > 100 µM
TGI (T-47D breast): > 100 µM
TGI (TK-10 renal): > 100 µM
TGI (U251 CNS): > 100 µM
TGI (UACC-257 melanoma): > 100 µM
TGI (UO-31 renal): > 100 µM

Reference: PubChem BioAssay (NCI)
